Values joined by “and” are separate entries in the source; they are usually repeats but may differ in a detail not shown here. Identical values can stand only once.
Assays:
Format in all cases: in vivo, human
hemoglobin A1c (HbA1c) = assay: Glucose control: change from baseline in HbA1c, double-blind placebo-controlled study in type II DM; conditions: for Hemoglobin A1c Change % from baseline, Week 4, Mean (SD): type II DM subjects; for Hemoglobin A1c Endpoint Change % from baseline, Mean (SD): last available measurement carried forward
Protocol: Accordingly, subjects with type II DM were treated with a combination of rhIGF-I and glyburide, or with rhIGF-I or glyburide alone, to ascertain the potential benefits of the addition of rh1GF-I to glyburide therapy on glycemic control, incidence of hypoglycemia, and weight gain. […] The use of any additional orally administered drug or insulin to treat hyperglycemia during the pretreatment and treatment periods was prohibited. […] Randomization was stratified by gender, by prior oral […] agent therapy, and by HbA1c level at day 14.

[1] = Mid-thigh CT scan: thigh adipose tissue (TAT)
Protocol: All CT scans were performed on GE Sytec 4000 CT scanners or an equivalent scanner.
An initial Thigh Scan was performed using the following procedure: • 1. The subject lay on the CT bed with his or her feet toward the scanner. The subject's knees were at least 3 inches above the extended bed joint, not over the joint. • 2. The legs were positioned so they were not touching each other and the hands were crossed over the abdomen so as not to interfere with the scan. • 3. The CT technician then positioned the bed. The entire femur was visualized in the initial topogram. • 4. The technician then made a topogram of the entire femur of the non-dominant leg and recorded this picture on the film. The length of the femur was then measured and recorded and this measurement was used to identify the midpoint of the femur. This midpoint was used to assess the cross section of the thigh. • 5. The technician took a 10-mm slice at the precise level of the mid-point of the femur with the following settings for a GE Sytec 4000 scanner: • kV=100 • MA=170 • 1 sec • DFOV=21 • Algorithm=standard
Technicians were advised that although settings for some scanners may be slightly different, the settings must be standardized so as to give the greatest definition for fat and lean tissue. Once the technician determined the appropriate setting for a scanner, he or she was advised to use the same settings for every (slice) scan. The topograms could be at different settings as the topograms would not be imaged. • 6. The entire cross section of the nondominant thigh was visualized on the screen. If the entire thigh was not visualized on the screen, the picture was reconfigured with a larger display field of view. Once the entire thigh was visualized on the screen, the technician downloaded the cross section to the disk. The disk was checked to make sure the image was actually there, and then the picture was recorded on film. • 7. The exam number, series number, and image number of the slice was then recorded. • 8. The technician sent the film to the printer at this point. The film was set at four pictures per film, and the film had for the femur the recorded total distance, the midpoint, and the slice of the thigh.
The same leg (left) was used as in the initial scan. A topogram of the thigh was taken, and a measurement made down the femur to the midpoint of the femur using the same distance as was used in the baseline thigh scan. A 10-mm cross section scan was taken at the midpoint using the identical settings as were used for the baseline scan. A record was made of the exam number, series number, and image number of the slice.
Slices were downloaded onto the scanner and then retrieved via optical disk (or the Internet if possible) to a computer for analysis. During analysis, the area of intra-abdominal and subcutaneous fat as well as oblique, psoas, quadratum laborum, and sacrospinalis muscles were measured. The images were digitized by optical density to separate bone, muscle, and fat compartments using a modified version of the NIH IMAGE program. Pixel units were converted to area measurements using an internal calibration standard. Digitized images were analyzed in a blinded fashion. The coefficient of variation of repeated analysis of a single scan is <1.5%.

Change in body weight [2] = conditions: for Weight Change (SE) Week 14: 2 weeks after treatment stopped; for Weight Change (SE) Week 8: change from Day 1
Change in body weight [3] = conditions: for Weight Change (SE) Week 12: change from Day 1
Excerpt: The efficacy endpoints were the change in glucose control as assessed by the change from baseline (day 1 to week 12) in hemoglobin A1c (HbA1c) levels, and changes from baseline (day 1 to week 12) in fasting blood glucose (BG), body weight, and visceral and mid-thigh fat.
The primary efficacy variable for the assessment of treatment effect on glucose control at Week 12 was the change from baseline (day 1) in HbA1c levels. Secondary efficacy variables assessing glucose control at Week 12 were the change from baseline (day 1) for each of the following: fasting blood glucose concentration, weight, and visceral and mid-thigh fat.
Secondary efficacy variables assessing glucose control at Week 12 were the change from baseline (Day 1) for each of the following: weight, and visceral and mid-thigh fat.

[4] = ETDRS retinopathy score by fundus photography
Protocol: Because concern existed regarding the effects of rhIGF-I on two types of ocular findings—progression of diabetic retinopathy and optic disc swelling—the occurrence of such findings was recorded as a measure of safety. An ophthalmologic visit for dilated funduscopic examination was performed during the screening period. Additionally, fundus photography was performed on each subject prior to initiation of treatment with rhIGF-I or placebo between day 7 and day 1. When optic disc swelling was detected on the initial baseline photograph, the subject was terminated from the study immediately. If the baseline photograph was scored at an Early Treatment Diabetic Retinopathy Study (ETDRS) scale of greater than 35 in either eye, the subject was also not allowed to progress further in the study.
Both the ophthalmologic examination and fundus photography were repeated at the completion of the treatment period or at the early termination visit in the event of premature termination. The ophthalmologic exam was performed within 3 days of the fundus photography. In the event that optic disc swelling was detected on the fundus photograph obtained at the week 12 or early termination visits, subjects were asked to return for repeat fundus photography at 1-3 months following discontinuation from the study, and again at 3-month intervals until the optic disc swelling resolved.
Fundus photographs, obtained for each subject at week 12 or at the early termination visit, were compared with the photographs obtained prior to treatment in order to evaluate the development of retinopathy during the course of the study. The photographs for each eye were graded using the final version of the ETDRS scale. The resulting scores for each eye were combined to yield the ETDRS person score. A change between day 1 and week 12 (or early termination) in the full scale ETDRS person score of three or more levels (5 units) was recorded as a progression of retinopathy and as an adverse event.
A change in ETDRS level was the maximum difference between baseline and on-study or post-treatment values. A negative change indicated improvement.

[5] = rhIGF-I 20 μg/kg BID SC, with glyburide 10 mg BID or glyburide placebo per label
[6] = rhIGF-I 40 μg/kg BID SC, with glyburide 10 mg BID or glyburide placebo per label
[7] = IGF-I 20 μg/kg, with glyburide or glyburide placebo per label
[8] = IGF-I 40 μg/kg, with glyburide or glyburide placebo per label
[9] = IGF-I 20 μg/kg BID, with glyburide or glyburide placebo per label
[10] = IGF-I 40 μg/kg BID, with glyburide or glyburide placebo per label
[11] = low dose IGF-I (20 μg/kg BID) alone
[12] = IGF-I 20 μg/kg BID, with glyburide (n = 36) or glyburide placebo (n = 35)
[13] = IGF-I 40 μg/kg BID, with glyburide (n = 36) or glyburide placebo (n = 33)
[14] = glyburide 10 mg BID + rhIGF-I placebo
[15] = glyburide 10 mg BID + rhIGF-I placebo (n = 29)

Compound: IGF-I: recombinant human insulin-like growth factor-I from Genentech; sterile benzyl alcohol-preserved solution, 70 mg in 7 mL acetate/NaCl, pH 5.4; given SC
- Hemoglobin A1c Change % from baseline, Week 8, Mean (SD) (hemoglobin A1c (HbA1c); [5]): −0.29 (0.8) %
- Hemoglobin A1c Change % from baseline, Week 12, Mean (SD) (hemoglobin A1c (HbA1c); [5]): 0.13 (1.2) %
- Hemoglobin A1c Change % from baseline, Week 4, Mean (SD) (hemoglobin A1c (HbA1c); [5]): −0.10 (0.6) %
- Hemoglobin A1c Endpoint Change % from baseline, Mean (SD) (hemoglobin A1c (HbA1c); rhIGF-I 20 μg/kg BID SC, with glyburide 10 mg BID or placebo per label): 0.04 (0.9) %
- Hemoglobin A1c Change % from baseline, Week 8, Mean (SD) (hemoglobin A1c (HbA1c); [6]): −0.47 (0.9) %
- Hemoglobin A1c Change % from baseline, Week 12, Mean (SD) (hemoglobin A1c (HbA1c); [6]): −0.58% and −0.58 (1.2) %
- Hemoglobin A1c Change % from baseline, Week 4, Mean (SD) (hemoglobin A1c (HbA1c); [6]): −0.37 (0.5) %
- Hemoglobin A1c Endpoint Change % from baseline, Mean (SD) (hemoglobin A1c (HbA1c); rhIGF-I 40 μg/kg BID SC, with glyburide 10 mg BID or placebo per label): −0.30 (0.8) %
- Change in TAT (%), mean (SEM) [1, 7]: −1.4 (3.7) %
- Change in TAT, mean (SEM) [1, 7]: −1.2 (2.8) sq cm
- Change in TAT (%), mean (SEM) [1, 8]: 3.9 (4.3) %
- Change in TAT, mean (SEM) [1, 8]: 0.3 (4.3) sq cm
- Weight Change (SE) Week 14 (Change in body weight [2]; [9]): −2.7 (0.6) kg
- Weight Change (SE) Week 8 (Change in body weight [2]; [9]): −1.5 (0.6) kg
- Weight Change (SE) Week 14 (Change in body weight [2]; [10]): −1.6 (0.5) kg
- Weight Change (SE) Week 8 (Change in body weight [2]; [10]): −0.2 (0.5) kg
- weight loss 2 weeks after treatment was stopped (Week 14) (Change in body weight [2]; [11]): 2.7 kg
- weight lost on average, Week 8 (Change in body weight [2]; [11]): 1.5 kg
- Weight Change (SE) Week 12 (Change in body weight [3]; [9]): −2.8 (0.7) kg
- Weight Change (SE) Week 12 (Change in body weight [3]; [10]): −0.6 (0.7) kg
- weight lost on average, Week 12 (Change in body weight [3]; [11]): 2.8 kg
- Change in ETDRS levels: 1- to 2-step Progression [4, 12]: 4 (11) n (%)
- Change in ETDRS levels: No change [4, 12]: 24 (69) n (%)
- Change in ETDRS levels: −1- to −2-step progression (negative change = improvement) [4, 12]: 6 (17) n (%)
- Change in ETDRS levels: ≧3-step progression [4, 12]: 1 (3) n (%)
- subjects showing an improvement in retinal score ([4]; IGF-I 20 μg/kg BID, with glyburide or placebo per label): 6 subjects
- Change in ETDRS levels: 1- to 2-step Progression [4, 13]: 7 (21) n (%)
- Change in ETDRS levels: No change [4, 13]: 20 (61) n (%)
- Change in ETDRS levels: −1- to −2-step progression (negative change = improvement) [4, 13]: 5 (15) n (%)
- Change in ETDRS levels: ≧3-step progression [4, 13]: 0 n (%)
- subjects showing an improvement in retinal score ([4]; IGF-I 40 μg/kg BID, with glyburide or placebo per label): 5 subjects
- progression of retinopathy (increases in the ETDRS scores) ([4]; IGF-I 20 or 40 μg/kg BID, 12 weeks, type II DM subjects): did not cause a progression of retinopathy

Compound: COc1ccc(Cl)cc1C(=O)NCCc1ccc(S(=O)(=O)NC(=O)NC2CCCCC2)cc1 [Glyburide, glyburide, reference compound]
- Hemoglobin A1c Change % from baseline, Week 8, Mean (SD) (hemoglobin A1c (HbA1c); [14]): 0.05 (0.7) %
- Hemoglobin A1c Change % from baseline, Week 12, Mean (SD) (hemoglobin A1c (HbA1c); [14]): 0.32% and 0.32 (0.7) %
- Hemoglobin A1c Endpoint Change % from baseline, Mean (SD) (hemoglobin A1c (HbA1c); [14]): 0.12 (0.8) %
- Hemoglobin A1c Change % from baseline, Week 4, Mean (SD) (hemoglobin A1c (HbA1c); [14]): −0.13 (0.5) %
- Change in TAT (%), mean (SEM) ([1]; glyburide active + IGF-I placebo): 2.5 (2.0) %
- Change in TAT, mean (SEM) ([1]; glyburide active + IGF-I placebo, thigh CT, change from baseline): 1.0 (1.6) sq cm
- Weight Change (SE) Week 14 (Change in body weight [2]; [14]): 0.0 (0.8) kg
- Weight Change (SE) Week 8 (Change in body weight [2]; [14]): −0.2 (0.4) kg
- Weight Change (SE) Week 12 (Change in body weight [3]; [14]): −0.1 (0.5) kg
- subjects showing an improvement in retinal score ([4]; Placebo/glyburide group): one
- Change in ETDRS levels: 1- to 2-step Progression [4, 15]: 8 (28) n (%)
- Change in ETDRS levels: No change [4, 15]: 19 (66) n (%)
- Change in ETDRS levels: −1- to −2-step progression (negative change = improvement) [4, 15]: 1 (3) n (%)
- Change in ETDRS levels: ≧3-step progression [4, 15]: 1 (3) n (%)

Reference: patent US7833964B2, “Methods of reducing visceral fat by increasing levels of insulin-like growth factor-I (IGF-I)” (Tercica, Inc., priority 2003, dated 2010)
